Experimental data taken from US6448405B1, “Steroid receptor modulator compounds and methods” (Ligand Pharmaceuticals Incorporated, priority 1994, dated 2002).

Biological target: T1, human PR-B (Homo sapiens, UniProt P06401)
T1 construct: expressed in transfected cells; host or cells: CV-1 cells (African green monkey kidney fibroblasts), transient transfection
T1 sequence (P06401 1-933): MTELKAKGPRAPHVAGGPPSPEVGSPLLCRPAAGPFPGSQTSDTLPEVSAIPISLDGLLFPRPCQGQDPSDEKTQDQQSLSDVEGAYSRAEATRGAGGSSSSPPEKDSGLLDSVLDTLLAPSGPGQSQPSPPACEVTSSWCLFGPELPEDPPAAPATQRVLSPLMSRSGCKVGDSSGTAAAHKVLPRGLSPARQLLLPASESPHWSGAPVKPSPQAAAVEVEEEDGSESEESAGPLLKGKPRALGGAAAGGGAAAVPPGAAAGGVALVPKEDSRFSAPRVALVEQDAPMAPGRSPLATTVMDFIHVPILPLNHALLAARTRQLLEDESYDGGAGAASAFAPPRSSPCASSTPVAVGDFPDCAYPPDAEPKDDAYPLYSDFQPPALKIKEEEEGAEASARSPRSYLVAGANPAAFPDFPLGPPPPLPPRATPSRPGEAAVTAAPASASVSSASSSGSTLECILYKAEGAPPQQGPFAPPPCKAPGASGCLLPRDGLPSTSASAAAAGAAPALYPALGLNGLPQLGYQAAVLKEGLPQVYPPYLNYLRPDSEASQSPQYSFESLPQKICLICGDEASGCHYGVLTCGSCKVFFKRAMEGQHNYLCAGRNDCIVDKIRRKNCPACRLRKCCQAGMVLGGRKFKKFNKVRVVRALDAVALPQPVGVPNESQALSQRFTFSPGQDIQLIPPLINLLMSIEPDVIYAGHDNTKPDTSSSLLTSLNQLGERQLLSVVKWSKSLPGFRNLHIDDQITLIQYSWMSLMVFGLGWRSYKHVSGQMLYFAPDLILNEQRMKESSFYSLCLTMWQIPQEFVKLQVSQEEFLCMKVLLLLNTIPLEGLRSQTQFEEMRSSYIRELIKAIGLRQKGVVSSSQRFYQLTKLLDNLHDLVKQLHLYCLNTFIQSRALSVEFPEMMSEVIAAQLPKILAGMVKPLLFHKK
Assay: Co-transfection assay, PR agonist and antagonist activity, CV-1 cells;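 also: luciferase reporter driven by a hormone response element, co-transfected with human PR-B into CV-1 monkey kidney cells, agonists raise and antagonists lower the reporter signal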
Assay type: cell-based
Conditions: for EC50: read-out: PR Agonist CV-1 Cells Potency; for PR Antagonist CV-1 Cells Efficacy (%): antagonist mode, progesterone at its EC50, % maximal inhibition; for IC50: read-out: PR Antagonist CV-1 Cells Potency

Row | SMILES | EC50 (agonist mode) [nM] | PR Antagonist CV-1 Cells Efficacy (%) | IC50 [nM] | PR Agonist CV-1 Cells Efficacy (%) (agonist mode, percent maximal response relative to reference agonist progesterone)
1 | CC1=CC(C)(C)Nc2ccc3c(c21)C(c1cccc(C(F)(F)F)c1)Oc1ccccc1-3 (racemic) [Compound 195, (R/S) 1,2-Dihydro-2,2,4-trimethyl-5-[3-(trifluoromethyl)phenyl]-5H-chromeno[3,4-f]quinoline] | 13 | na (na = not active (i.e. efficacy or <20 and potency of >10,000)) | > 10000 | –
2 | CC1=CC(C)(C)Nc2ccc3c(c21)C(c1ccccc1)Oc1ccccc1-3 (racemic) [Compound 161, (R/S)-1,2-Dihydro-2,2,4-trimethyl-5-phenyl-5H-chromeno[3,4-f]quinoline] | 203 | 75% | 209 | 47
